Measurements: ChEMBL document CHEMBL1124496, “Darmstoff analogues. 3. Actions of choline esters of acetal phosphatidic acids on visceral smooth muscle” (1989)

Species: Cavia porcellus
Experiment: Effective dose for relaxation of guinea pig taenia coli strips
Format: functional

Structure (SMILES)	ED60 [µM]
CCCCCCCCCCCCCCCC1OCC(COP(=O)([O-])OCC[N+](C)(C)C)O1 (stereo not drawn)	57
CCCCC/C=C/C/C=C/CCCCCCCC1OCC(COP(=O)([O-])OCC[N+](C)(C)C)O1 (stereo not drawn)	50
CCCCCCCC/C=C/CCCCCCCC1OCC(COP(=O)([O-])OCC[N+](C)(C)C)O1 (cis isomer)	200
